According to patent publication US10053431B2, “Tetrahydro-benzodiazepinones” (priority 2013, dated 2018):
pIC50: −log10 of the molar value. Counter-ions that a name gives are not always drawn. Like-named read-outs stand apart in the source and are kept apart here.

What was measured:
[1] = target: BIR3 domain of XIAP (Homo sapiens (Human), UniProt P98170); assay: TR-FRET assay for BIR3 (inhibition of binding of XIAP BIR3 domain to SMAC-derived Peptide A); details: 6x His-tagged BIR3 domain (aa 241-356 of XIAP) 10 nM, Peptide A 20 nM, TR-FRET
[2] = target: BIR2 domain of XIAP (Homo sapiens (Human), UniProt P98170, C202A/C213G); assay: TR-FRET assay for BIR2 (inhibition of binding of XIAP BIR2 domain to SMAC-derived Peptide A)
[3] = 6x His-tagged BIR2 domain (aa 124-240 of XIAP) 10 nM, Peptide A 20 nM, TR-FRET, read-out: IC50 BIR2

BIR3 domain of XIAP, sequence (P98170 241-356 with tags or gaps limits assumed): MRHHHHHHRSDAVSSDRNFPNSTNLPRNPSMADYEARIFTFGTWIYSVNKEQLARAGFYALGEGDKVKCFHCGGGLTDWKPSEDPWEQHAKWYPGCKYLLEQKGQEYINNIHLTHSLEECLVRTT
BIR2 domain of XIAP, sequence (P98170 124-240 with tags or gaps C202A/C213G limits assumed): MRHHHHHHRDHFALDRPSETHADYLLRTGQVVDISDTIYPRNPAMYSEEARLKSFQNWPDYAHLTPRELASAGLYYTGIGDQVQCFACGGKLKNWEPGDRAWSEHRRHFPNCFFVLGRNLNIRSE

Compound | pIC50 [1] | pIC50 ([2]; IC50 BIR2) | pIC50 [2, 3]
CC[C@H](N)C(=O)NC1C(=O)N(Cc2c(OC)ccc3c(Br)cccc23)c2ccccc2N(c2ccccc2)C1=O (stereo partly drawn) [Example 137, (2S)-2-amino-N-(1-((5-bromo-2-methoxynaphthalen-1-yl)methyl)-2,4-dioxo-5-phenyl-2,3,4,5-tetrahydro-1H-benzo[b][1,4]diazepin-3-yl)butanamide] | < 4.26 | 7.53 | –
CC[C@H](NCCO)C(=O)NC1C(=O)N(Cc2c(OC)ccc3c(Br)cccc23)c2ccccc2N(c2ccccc2)C1=O (stereo partly drawn) [Example 138, (2S)-N-(1-((5-bromo-2-methoxynaphthalen-1-yl)methyl)-2,4-dioxo-5-phenyl-2,3,4,5-tetrahydro-1H-benzo[b][1,4]diazepin-3-yl)-2-(2-hydroxyethylamino)butanamide] | < 4.26 | – | 7.16
CN[C@@H](C)C(=O)N[C@H]1CN(C(=O)c2ccc(C#N)cc2)c2cc(Cl)ccc2N(Cc2c(OC(F)F)ccc3ccccc23)C1=O [Example 139, (S)-N-((S)-7-chloro-5-(4-cyanobenzoyl)-1-((2-(difluoromethoxy)naphthalen-1-yl)methyl)-2-oxo-2,3,4,5-tetrahydro-1H-benzo[b][1,4]diazepin-3-yl)-2-(methylamino)propanamide hydrochloride] | 4.43 | – | 7.46
CN[C@@H](C)C(=O)N[C@H]1CN(C(=O)c2ccc(C#N)cc2)c2cc(C#N)ccc2N(Cc2c(OC)ccc3c(Br)cccc23)C1=O [Example 143, (S)-N-((S)-1-((5-bromo-2-methoxynaphthalen-1-yl)methyl)-7-cyano-5-(4-cyanobenzoyl)-2-oxo-2,3,4,5-tetrahydro-1H-benzo[b][1,4]diazepin-3-yl)-2-(methylamino)propanamide hydrochloride] | 4.79 | – | 8.29
CCN[C@@H](C)C(=O)N[C@H]1CN(C(=O)CS(C)(=O)=O)c2ccccc2N(Cc2c(OC)ccc3cc(Br)ccc23)C1=O [Example 149, (S)-N-((S)-1-((6-bromo-2-methoxynaphthalen-1-yl)methyl)-5-(2-(methylsulfonyl)acetyl)-2-oxo-2,3,4,5-tetrahydro-1H-benzo[b][1,4]diazepin-3-yl)-2-(ethylamino)propanamide] | < 4.26 | – | 6.74
CN[C@@H](C)C(=O)N[C@H]1CN(C(=O)c2ccc(F)cc2)c2cc(C#N)ccc2N(Cc2c(OC(F)F)ccc3ccccc23)C1=O [Example 151, (S)-N-((S)-7-cyano-1-((2-(difluoromethoxy)naphthalen-1-yl)methyl)-5-(4-fluorobenzoyl)-2-oxo-2,3,4,5-tetrahydro-1H-benzo[b][1,4]diazepin-3-yl)-2-(methylamino)propanamide hydrochloride] | 4.31 | – | 7.55
CCN[C@@H](CC)C(=O)N[C@H]1CN(C(=O)CS(C)(=O)=O)c2ccccc2N(Cc2c(OC)ccc3c(Br)cccc23)C1=O [Example 155, (S)-N-((S)-1-((5-bromo-2-methoxynaphthalen-1-yl)methyl)-5-(2-(methylsulfonyl)acetyl)-2-oxo-2,3,4,5-tetrahydro-1H-benzo[b][1,4]diazepin-3-yl)-2-(ethylamino)butanamide hydrochloride] | < 4.26 | – | 7.73
CN[C@@H](C)C(=O)N[C@H]1CN(C(=O)c2ccc3cn[nH]c3c2)c2ccccc2N(Cc2c(C)ccc3ccccc23)C1=O [Example 158, (2S)-N-[(3S)-1-(1H-indazole-6-carbonyl)-5-[(2-methylnaphthalen-1-yl)methyl]-4-oxo-2,3-dihydro-1,5-benzodiazepin-3-yl]-2-(methylamino)propanamide] | < 4.26 | – | 7.74
CN[C@@H](C)C(=O)N[C@H]1CN(C(=O)CS(C)(=O)=O)c2cc(C#N)ccc2N(Cc2c(OC)ccc3c(Br)cccc23)C1=O [Example 160, (S)-N-((S)-1-((5-bromo-2-methoxynaphthalen-1-yl)methyl)-7-cyano-5-(2-(methylsulfonyl)acetyl)-2-oxo-2,3,4,5-tetrahydro-1H-benzo[b][1,4]diazepin-3-yl)-2-(methylamino)propanamide hydrochloride] | < 4.26 | – | 7.79
CN[C@@H](C)C(=O)N[C@H]1CN(C(=O)CS(C)(=O)=O)c2cc(C#N)ccc2N(Cc2nn(-c3ccccc3C#N)c3ccccc23)C1=O [Example 161, (2S)-N-[(3S)-7-cyano-1-[[1-(2-cyanophenyl)indazol-3-yl]methyl]-5-(2-methylsulfonylacetyl)-2-oxo-3,4-dihydro-1,5-benzodiazepin-3-yl]-2-(methylamino)propanamide;2,2,2-trifluoroacetic acid] | < 4.26 | – | 7.27
CN[C@@H](C)C(=O)N[C@H]1CN(C(=O)c2ccc(C(C)=O)cc2)c2cc(C#N)ccc2N(Cc2nn(-c3ccccc3C#N)c3ccccc23)C1=O [Example 162, (S)-N-((S)-5-(4-acetylbenzoyl)-7-cyano-1-((1-(2-cyanophenyl)-1H-indazol-3-yl)methyl)-2-oxo-2,3,4,5-tetrahydro-1H-benzo[b][1,4]diazepin-3-yl)-2-(methylamino)propanamide hydrochloride] | < 4.26 | – | 7.74
CN[C@@H](C)C(=O)N[C@H]1CN(C(=O)CS(C)(=O)=O)c2cc(C#N)ccc2N(Cc2c(OC)ccc3ccccc23)C1=O [Example 166, (S)-N-((S)-7-cyano-1-((2-methoxynaphthalen-1-yl)methyl)-5-(2-(methylsulfonyl)acetyl)-2-oxo-2,3,4,5-tetrahydro-1H-benzo[b][1,4]diazepin-3-yl)-2-(methylamino)propanamide hydrochloride] | 4.36 | – | 7.70
CN[C@@H](C)C(=O)N[C@H]1CNc2cc(C#N)ccc2N(Cc2nn(-c3ccccc3C#N)c3ccccc23)C1=O [Example 168, (S)-N-((S)-7-cyano-1-((1-(2-cyanophenyl)-1H-indazol-3-yl)methyl)-2-oxo-2,3,4,5-tetrahydro-1H-benzo[b][1,4]diazepin-3-yl)-2-(methylamino)propanamide dihydrochloride] | < 4.26 | – | 7.02
CN[C@@H](C)C(=O)N[C@H]1CN(C(C)=O)c2cc(C#N)ccc2N(Cc2nn(-c3ccccc3C#N)c3ccccc23)C1=O [Example 169, (S)-N-((S)-5-acetyl-7-cyano-1-((1-(2-cyanophenyl)-1H-indazol-3-yl)methyl)-2-oxo-2,3,4,5-tetrahydro-1H-benzo[b][1,4]diazepin-3-yl)-2-(methylamino)propanamide hydrochloride] | < 4.26 | – | 7.48
CN[C@@H](C)C(=O)N[C@H]1CN(C(=O)C2CCOCC2)c2cc(C#N)ccc2N(Cc2nn(-c3ccccc3C#N)c3ccccc23)C1=O [Example 170, (S)-N-((S)-7-cyano-1-((1-(2-cyanophenyl)-1H-indazol-3-yl)methyl)-2-oxo-5-(tetrahydro-2H-pyran-4-carbonyl)-2,3,4,5-tetrahydro-1H-benzo[b][1,4]diazepin-3-yl)-2-(methylamino)propanamide hydrochloride] | < 4.26 | – | 7.59
CN[C@@H](C)C(=O)N[C@H]1CN(C(=O)CS(C)(=O)=O)c2ccc(C#N)cc2N(Cc2c(OC)ccc3ccccc23)C1=O [Example 171, (S)-N-((S)-8-cyano-1-((2-methoxynaphthalen-1-yl)methyl)-5-(2-(methylsulfonyl)acetyl)-2-oxo-2,3,4,5-tetrahydro-1H-benzo[b][1,4]diazepin-3-yl)-2-(methylamino)propanamide hydrochloride] | 4.38 | – | 7.52
CN[C@@H](C)C(=O)N[C@H]1CN(C(=O)CS(C)(=O)=O)c2ccc(C#N)cc2N(Cc2c(C)ccc3ccccc23)C1=O [Example 172, (S)-N-((S)-8-cyano-1-((2-methylnaphthalen-1-yl)methyl)-5-(2-(methylsulfonyl)acetyl)-2-oxo-2,3,4,5-tetrahydro-1H-benzo[b][1,4]diazepin-3-yl)-2-(methylamino)propanamide hydrochloride] | < 4.26 | – | 7.02
CN[C@@H](C)C(=O)N[C@H]1CN(C(=O)CCOC)c2cc(C#N)ccc2N(Cc2nn(-c3ccccc3C#N)c3ccccc23)C1=O [Example 173, (S)-N-((S)-7-cyano-1-((1-(2-cyanophenyl)-1H-indazol-3-yl)methyl)-5-(3-methoxypropanoyl)-2-oxo-2,3,4,5-tetrahydro-1H-benzo[b][1,4]diazepin-3-yl)-2-(methylamino)propanamide hydrochloride] | < 4.26 | – | 7.42
CN[C@@H](C)C(=O)N[C@H]1CN(C(=O)c2ccncc2)c2cc(C#N)ccc2N(Cc2nn(-c3ccccc3C#N)c3ccccc23)C1=O [Example 174, (S)-N-((S)-7-cyano-1-((1-(2-cyanophenyl)-1H-indazol-3-yl)methyl)-5-isonicotinoyl-2-oxo-2,3,4,5-tetrahydro-1H-benzo[b][1,4]diazepin-3-yl)-2-(methylamino)propanamide dihydrochloride] | < 4.26 | – | 7.65
CN[C@@H](C)C(=O)N[C@H]1CN(C(C)=O)c2cc(C#N)ccc2N(Cc2c(C3CC3)ccc3c(C#N)cccc23)C1=O [Example 176, (S)-N-((S)-5-acetyl-7-cyano-1-((5-cyano-2-cyclopropylnaphthalen-1-yl)methyl)-2-oxo-2,3,4,5-tetrahydro-1H-benzo[b][1,4]diazepin-3-yl)-2-(methylamino)propanamide hydrochloride] | 4.59 | – | 7.42
CN[C@@H](C)C(=O)N[C@H]1CN(C(C)=O)c2cc(C(F)(F)F)ccc2N(Cc2nn(-c3ccccc3C#N)c3ccccc23)C1=O [Example 177, (S)-N-((S)-5-acetyl-1-((1-(2-cyanophenyl)-1H-indazol-3-yl)methyl)-2-oxo-7-(trifluoromethyl)-2,3,4,5-tetrahydro-1H-benzo[b][1,4]diazepin-3-yl)-2-(methylamino)propanamide hydrochloride] | < 4.26 | – | 7.45
